Data on 13 molecules can be found in patent US20230118577A1, “NEUROACTIVE STEROIDS AND PHARMACEUTICAL COMPOSITION CONTAINING THE SAME” (Brii Biosciences, Inc., priority 2020, published 2023).

Some results are limits rather than exact numbers.

One experiment deals with T1, GABAA α1β2γ2 (Homo sapiens, UniProt P14867+P47870).
T1 construct: expressed in transfected cells; host or cells: HEK293 expressing the Tetracycline repressor protein
Kind of experiment: Automated patch clamp electrophysiology (SyncroPatch), PAM mode, GABAA α1β2γ2 cell line. The format is cell-based. The settings on record: PAM mode; for EC50: HEK293 cells expressing human GABAA α1β2γ2, GABA EC20 14 μM, read-out: GABAA α1β2γ2 PAM EC50; for Emax: maximum fold increase in current relative to Allopregnanolone, GABA EC20 14 μM, read-out: GABAA α1β2γ2 PAM % Emax (to Allo). An excerpt: (§1) Cellular electrophysiology was used to measure the pharmacology properties of the GABA receptor modulators. The GABAA channels are expressed in stable cell lines described herein. The parental cell line used to express the human GABAA channels is the human embryonic kidney (HEK293) cell line expressing the Tetracycline repressor protein to support inducible expression of the target proteins.
(§2) For the GABAA α4β3δ cell line, the α4 and β3 subunits are under control of tetracycline inducible expression system, while the δ subunit is constitutively expressed. For the GABAA α1β2γ2 cell line, the α1 and β2 subunits are under control of tetracycline inducible expression system, whist the γ2 subunit is constitutively expressed.
(§3) Assessment of the compounds against GABAA α1β2γ2 and GABAA α4β3δ was performed using the SyncroPatch automated platform in positive allosteric modulator (PAM) mode. Six concentrations of 20 nM, 62 nM, 185 nM, 555 nM, 1667 nM and 5000 nM were tested across the plate, with a single concentration of compound per well. A minimum of 3 cells were obtained per each concentration of a compound.
(§4) Automated patch clamp-recordings were performed using the SyncroPatch 384PE. The voltage protocol generation and data collection were performed with PatchController384 V1.6.6 and Data Controller V1.6.0. A steady state voltage pulse at −80 mV was applied during the assay.
(§5) The stacked addition protocol was used, in which γ-aminobutyric acid (GABA) was rapidly applied and then washed off from the cell. To test for positive allosteric modulator activity (PAM), first the agonist GABA EC20 (EC20: 10 μM for GABAA α4β3δ channel and 14 μM GABA for the GABAA α1β2γ2 channel) was applied twice (with wash steps in-between) as a control and to show activation reproducibility, followed by a 1-2 minutes pre-incubation of the tested compound and then re-application of GABA EC20 in the presence of a testing compound. Finally, following a further wash step, maximum GABA (10 mM) was applied.
(§6) An Allopregnanolone concentration response was tested as the control PAM on the compound plates. The fold increase was generated using the following equation, (Icomp/Icontrol)−1, where Icomp is the current amplitude in the presence of the compound and Icontrol is the current amplitude in the presence of GABA EC20 alone. This builds an EC50 concentration-response curve, where 0 represents no PAM activity and >0 represents PAM activity.
(§7) A maximum % Emax for each compound is generated using the following equation, (IMaxComp/IAveMaxAllo)*100, where IMaxcomp is the individual maximum fold increase in current for each compound and IAveMaxAllo is the average maximum fold increase generated in the presence of Allopregnanolone. The resultant % Emax values are then averaged. The compound and Allopregnanolone values were obtained from separate cells which were tested in the same compound run. Two GABAA subtypes were tested against each of the compounds as well as the positive control, Allopregnanolone.
(Patch clamp records ionic current or voltage across a cell membrane.)

The next experiment has as its target T2, GABAA α4β3δ (Homo sapiens, UniProt P28472+P48169).
T2 construct: expressed in transfected cells; host or cells: HEK293 expressing the Tetracycline repressor protein
Briefly: Automated patch clamp electrophysiology (SyncroPatch), PAM mode, GABAA α4β3δ cell line. The format is cell-based. The settings on record: PAM mode, GABA EC20 10 μM; for EC50: HEK293 cells expressing human GABAA α4β3δ, read-out: GABAA α4β3δ PAM EC50; for Emax: maximum fold increase in current relative to Allopregnanolone, read-out: GABAA α4β3δ PAM % Emax (to Allo).
Source text: as §1, §2, §3, §4, §5, §6, §7

T2 sequence (P48169 36-554): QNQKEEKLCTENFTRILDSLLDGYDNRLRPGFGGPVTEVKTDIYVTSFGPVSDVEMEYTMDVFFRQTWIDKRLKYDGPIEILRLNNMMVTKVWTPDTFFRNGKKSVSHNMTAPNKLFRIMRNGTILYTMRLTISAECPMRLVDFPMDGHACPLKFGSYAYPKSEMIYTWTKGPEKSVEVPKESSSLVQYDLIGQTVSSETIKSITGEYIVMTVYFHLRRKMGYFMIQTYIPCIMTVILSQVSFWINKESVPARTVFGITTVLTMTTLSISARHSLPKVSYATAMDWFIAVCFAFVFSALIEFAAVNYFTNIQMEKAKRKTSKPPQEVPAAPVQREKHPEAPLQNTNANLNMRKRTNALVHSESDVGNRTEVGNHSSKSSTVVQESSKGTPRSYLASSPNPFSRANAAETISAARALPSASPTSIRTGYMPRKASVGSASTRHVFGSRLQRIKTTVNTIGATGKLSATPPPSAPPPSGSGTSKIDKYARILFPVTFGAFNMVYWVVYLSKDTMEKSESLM
T2 sequence (P28472 26-473): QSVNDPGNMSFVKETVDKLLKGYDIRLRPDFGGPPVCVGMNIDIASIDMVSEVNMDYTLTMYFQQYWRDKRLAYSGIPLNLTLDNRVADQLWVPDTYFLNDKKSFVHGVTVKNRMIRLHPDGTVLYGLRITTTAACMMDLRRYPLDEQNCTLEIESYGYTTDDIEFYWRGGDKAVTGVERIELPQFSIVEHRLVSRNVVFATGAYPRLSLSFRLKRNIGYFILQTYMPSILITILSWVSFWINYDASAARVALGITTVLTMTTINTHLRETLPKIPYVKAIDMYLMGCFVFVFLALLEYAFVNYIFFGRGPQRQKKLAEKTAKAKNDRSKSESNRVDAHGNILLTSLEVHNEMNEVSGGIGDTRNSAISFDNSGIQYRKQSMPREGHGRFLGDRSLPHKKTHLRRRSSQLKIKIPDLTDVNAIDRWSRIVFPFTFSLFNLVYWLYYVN
T2 sequence (O14764 17-452 partner limits assumed): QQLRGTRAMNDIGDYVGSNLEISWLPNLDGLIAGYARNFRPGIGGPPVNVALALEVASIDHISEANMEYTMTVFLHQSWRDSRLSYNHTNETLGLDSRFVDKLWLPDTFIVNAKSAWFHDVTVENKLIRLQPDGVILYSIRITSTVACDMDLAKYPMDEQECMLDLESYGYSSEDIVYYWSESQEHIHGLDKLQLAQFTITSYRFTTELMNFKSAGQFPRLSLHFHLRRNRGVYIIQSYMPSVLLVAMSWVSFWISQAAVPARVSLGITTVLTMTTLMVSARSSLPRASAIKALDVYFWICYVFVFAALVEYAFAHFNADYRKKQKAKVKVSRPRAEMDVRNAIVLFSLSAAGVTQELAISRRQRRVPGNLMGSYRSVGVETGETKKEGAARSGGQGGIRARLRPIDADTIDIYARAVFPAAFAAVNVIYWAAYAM
T1 sequence (P14867 28-456): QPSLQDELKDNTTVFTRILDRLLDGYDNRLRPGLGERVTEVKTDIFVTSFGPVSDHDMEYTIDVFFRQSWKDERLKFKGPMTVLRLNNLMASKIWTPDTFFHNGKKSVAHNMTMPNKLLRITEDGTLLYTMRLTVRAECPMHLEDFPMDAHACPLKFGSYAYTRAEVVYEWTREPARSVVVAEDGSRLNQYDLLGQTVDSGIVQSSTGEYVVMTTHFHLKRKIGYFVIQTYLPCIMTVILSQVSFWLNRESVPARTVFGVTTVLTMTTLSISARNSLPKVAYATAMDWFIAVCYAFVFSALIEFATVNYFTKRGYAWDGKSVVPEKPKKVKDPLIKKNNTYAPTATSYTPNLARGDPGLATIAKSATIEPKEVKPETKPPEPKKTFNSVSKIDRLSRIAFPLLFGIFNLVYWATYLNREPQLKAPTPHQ
T1 sequence (P47870 25-512 limits assumed): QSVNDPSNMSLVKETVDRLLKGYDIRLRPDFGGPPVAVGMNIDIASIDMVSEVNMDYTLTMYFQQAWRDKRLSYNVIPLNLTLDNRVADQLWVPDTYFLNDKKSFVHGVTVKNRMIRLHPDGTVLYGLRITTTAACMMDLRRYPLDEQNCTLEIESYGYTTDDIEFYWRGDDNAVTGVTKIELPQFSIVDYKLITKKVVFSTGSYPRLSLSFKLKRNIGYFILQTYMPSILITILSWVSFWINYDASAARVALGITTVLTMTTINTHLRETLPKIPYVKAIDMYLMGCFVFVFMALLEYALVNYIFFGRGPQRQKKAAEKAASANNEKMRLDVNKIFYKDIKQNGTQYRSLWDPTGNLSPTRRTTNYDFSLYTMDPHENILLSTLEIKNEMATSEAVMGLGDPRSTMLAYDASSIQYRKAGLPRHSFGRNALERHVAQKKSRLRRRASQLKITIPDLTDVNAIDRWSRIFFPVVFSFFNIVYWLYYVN
T1 sequence (P18507 40-475 partner): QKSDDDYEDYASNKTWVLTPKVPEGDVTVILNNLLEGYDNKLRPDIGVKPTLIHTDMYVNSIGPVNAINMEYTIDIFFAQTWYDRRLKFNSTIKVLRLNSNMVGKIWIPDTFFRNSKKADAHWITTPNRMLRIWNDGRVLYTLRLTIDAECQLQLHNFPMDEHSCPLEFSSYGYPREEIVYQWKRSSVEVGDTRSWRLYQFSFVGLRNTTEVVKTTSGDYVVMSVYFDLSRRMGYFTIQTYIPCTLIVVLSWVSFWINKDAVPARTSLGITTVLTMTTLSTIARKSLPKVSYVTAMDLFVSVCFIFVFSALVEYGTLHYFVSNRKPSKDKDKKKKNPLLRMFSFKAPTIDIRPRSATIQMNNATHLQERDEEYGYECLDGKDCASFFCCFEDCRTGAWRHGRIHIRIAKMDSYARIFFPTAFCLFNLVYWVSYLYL

The term EC50 denotes the concentration at which the effect is half-maximal. The Emax is the greatest response seen or fitted, relative to the assay's reference. Take `CC1([C@H]2CC[C@H]3[C@@H]4CC[C@H]5C[C@](C)(O)CC[C@]5(C)[C@H]4CC[C@]23C)COC1` [Example 1, (3R,5S,8R,9S,10S,13S,14S,17S)-3,10,13-trimethyl-17-(3-methyloxetan-3-yl)-1,2,4,5,6,7,8,9,11,12,14,15,16,17-tetradecahydrocyclopenta[a]phenanthren-3-ol]: at GABAA α1β2γ2, the 50% effective concentration (EC50) fell in the range of 500 to 1000 nM and the maximal effect (Emax) is less than 50%. For the same molecule, at GABAA α4β3δ, the concentration giving a half-maximal response (EC50) is greater than 1500 nM and the Emax was less than 50%.
As to `CC1([C@H]2CC[C@H]3[C@@H]4CC[C@@H]5C[C@](C)(O)CC[C@@H]5[C@H]4CC[C@]23C)COC1` [Example 2, (3R,5R,8R,9R,10S,13S,14S,17S)-3,13-dimethyl-17-(3-methyloxetan-3-yl)-2,4,5,6,7,8,9,10,11,12,14,15,16,17-tetradecahydro-1H-cyclopenta[a]phenanthren-3-ol], on GABAA α1β2γ2, the EC50 lay in the range of 1000 to 1500 nM and the Emax is greater than 90%. Further, on GABAA α4β3δ, the EC50 is less than 500 nM and the Emax is greater than 90%.
Turning to `CC1([C@H]2CC[C@H]3[C@@H]4CC[C@H]5C[C@H](O)CC[C@]5(C)[C@H]4CC[C@]23C)CCO1` (stereo partly drawn) [Example 3, (3R,5S,8R,9S,10S,13S,14S,17S)-10,13-dimethyl-17-(2-methyloxetan-2-yl)-2,3,4,5,6,7,8,9,11,12,14,15,16,17-tetradecahydro-1H-cyclopenta[a]phenanthren-3-ol], on GABAA α1β2γ2, the EC50 fell in the range of 1000 to 1500 nM and the maximal effect (Emax) is less than 50%. Also, on GABAA α4β3δ, the 50% effective concentration (EC50) is 1000 to 1500 nM and the Emax was less than 50%.
With `CC1([C@H]2CC[C@H]3[C@@H]4CC[C@H]5C[C@H](O)CC[C@]5(C)[C@H]4CC[C@]23C)COC1` [Example 5, (3R,5S,8R,9S,10S,13S,14S,17S)-10,13-dimethyl-17-(3-methyloxetan-3-yl)-2,3,4,5,6,7,8,9,11,12,14,15,16,17-tetradecahydro-1H-cyclopenta[a]phenanthren-3-ol], at GABAA α1β2γ2, the concentration for a half-maximal effect (EC50) was 500 to 1000 nM and the maximum response (Emax) was 50 to 90%. Besides, on GABAA α4β3δ, the EC50 was greater than 1500 nM and the maximal response (Emax) is less than 50%.
Consider `CC1([C@H]2CC[C@H]3[C@@H]4CC[C@@H]5C[C@H](O)CC[C@]5(C)[C@H]4CC[C@]23C)COC1` [Example 6, (3R,5R,8R,9S,10S,13S,14S,17S)-10,13-dimethyl-17-(3-methyloxetan-3-yl)-2,3,4,5,6,7,8,9,11,12,14,15,16,17-tetradecahydro-1H-cyclopenta[a]phenanthren-3-ol], for which, on GABAA α1β2γ2, the EC50 was less than 500 nM and the maximal response (Emax) is greater than 90%. Besides, on GABAA α4β3δ, the EC50 is 1000 to 1500 nM and the Emax was greater than 90%.
`CC1([C@H]2CC[C@H]3[C@@H]4CC[C@@H]5C[C@](C)(O)CC[C@@H]5[C@H]4CC[C@]23C)CCOC1` (stereo partly drawn) [Example 7, (3R,5R,8R,9R,10S,13S,14S,17S)-3,13-dimethyl-17-(3-methyltetrahydrofuran-3-yl)-2,4,5,6,7,8,9,10,11,12,14,15,16,17-tetradecahydro-1H-cyclopenta[a]phenanthren-3-ol]: on GABAA α1β2γ2, the half-maximal effective concentration (EC50) is 500 to 1000 nM and the maximal response (Emax) is greater than 90%. For the same molecule, at GABAA α4β3δ, the EC50 was in the range of 500 to 1000 nM and the Emax is greater than 90%.
For the molecule `C[C@@]1(O)CC[C@H]2[C@H](CC[C@@H]3[C@@H]2CC[C@]2(C)[C@@H](C4(CC5CC5)COC4)CC[C@@H]32)C1` [Example 9, (3R,5R,8R,9R,10S,13S,14S,17S)-17-[3-(cyclopropylmethyl)oxetan-3-yl]-3,13-dimethyl-2,4,5,6,7,8,9,10,11,12,14,15,16,17-tetradecahydro-1H-cyclopenta[a]phenanthren-3-ol], at GABAA α1β2γ2, the EC50 was less than 500 nM and the maximal effect (Emax) lay in the range of 50 to 90%. For the same molecule, at GABAA α4β3δ, the EC50 was greater than 1500 nM and the maximum response (Emax) was greater than 90%.
Turning to `C[C@@]1(O)CC[C@H]2[C@H](CC[C@@H]3[C@@H]2CC[C@]2(C)[C@@H](C4(F)COC4)CC[C@@H]32)C1` [Example 10, (3R,5R,8R,9R,10S,13S,14S,17S)-17-(3-fluorooxetan-3-yl)-3,13-dimethyl-2,4,5,6,7,8,9,10,11,12,14,15,16,17-tetradecahydro-1H-cyclopenta[a]phenanthren-3-ol], the concentration for a half-maximal effect (EC50) at GABAA α1β2γ2 and on GABAA α4β3δ was less than 500 nM each time. For the same molecule, the Emax at GABAA α1β2γ2 and on GABAA α4β3δ was greater than 90% in each case.
`C[C@@]1(O)CC[C@H]2[C@H](CC[C@@H]3[C@@H]2CC[C@]2(C)[C@@H](C4(CC#N)COC4)CC[C@@H]32)C1` [Example 13, 2-[3-[(3R,5R,8R,9R,10S,13S,14S,17S)-3-hydroxy-3,13-dimethyl-2,4,5,6,7,8,9,10,11,12,14,15,16,17-tetradecahydro-1H-cyclopenta[a]phenanthren-17-yl]oxetan-3-yl]acetonitrile]: the EC50 on GABAA α1β2γ2 and on GABAA α4β3δ was 1000 to 1500 nM throughout. For the same molecule, the results for the Emax at GABAA α1β2γ2 and on GABAA α4β3δ were greater than 90% and less than 50%, respectively.
Take `C[C@@]1(O)CC[C@H]2[C@H](CC[C@@H]3[C@@H]2CC[C@]2(C)[C@@H](C4(CF)COC4)CC[C@@H]32)C1` [Example 14, (3R,5R,8R,9R,10S,13S,14S,17S)-17-[3-(fluoromethyl)oxetan-3-yl]-3,13-dimethyl-2,4,5,6,7,8,9,10,11,12,14,15,16,17-tetradecahydro-1H-cyclopenta[a]phenanthren-3-ol]: at GABAA α1β2γ2, the EC50 was 1000 to 1500 nM and the maximum response (Emax) is greater than 90%. In addition, on GABAA α4β3δ, the EC50 was in the range of 500 to 1000 nM and the Emax fell in the range of 50 to 90%.
The corresponding values for `C[C@@]1(O)CC[C@H]2[C@H](CC[C@@H]3[C@@H]2CC[C@]2(C)[C@@H](C4(Cn5cc(C#N)cn5)COC4)CC[C@@H]32)C1` [Example 15, 1-[[3-[(3R,5R,8R,9R,10S,13S,14S,17S)-3-hydroxy-3,13-dimethyl-2,4,5,6,7,8,9,10,11,12,14,15,16,17-tetradecahydro-1H-cyclopenta[a]phenanthren-17-yl]oxetan-3-yl]methyl]pyrazole-4-carbonitrile] are less than 500 nM, greater than 90%, greater than 1500 nM and greater than 90%.
`C[C@@]1(O)CC[C@H]2[C@H](CC[C@@H]3[C@@H]2CC[C@]2(C)[C@@H](C4(C#N)COC4)CC[C@@H]32)C1` [Example 18, 3-((3R,5R,8R,9R,10S,13S,14S,17S)-3-hydroxy-3,13-dimethyl-2,4,5,6,7,8,9,10,11,12,14,15,16,17-tetradecahydro-1H-cyclopenta[a]phenanthren-17-yl)oxetane-3-carbonitrile]: the concentration giving a half-maximal response (EC50) on GABAA α1β2γ2 and on GABAA α4β3δ was less than 500 nM throughout. Further, the Emax at GABAA α1β2γ2 is greater than 90%; on GABAA α4β3δ it was 50 to 90%.
In the case of `C[C@@]1(O)CC[C@H]2[C@H](CC[C@@H]3[C@@H]2CC[C@]2(C)[C@@H](C4(C(F)F)COC4)CC[C@@H]32)C1` [Example 19, (3R,5R,8R,9R,10S,13S,14S,17S)-17-[3-(difluoromethyl)oxetan-3-yl]-3,13-dimethyl-2,4,5,6,7,8,9,10,11,12,14,15,16,17-tetradecahydro-1H-cyclopenta[a]phenanthren-3-ol], at GABAA α1β2γ2, the 50% effective concentration (EC50) is less than 500 nM and the Emax is greater than 90%. At GABAA α4β3δ, the concentration for a half-maximal effect (EC50) was less than 500 nM and the Emax was greater than 90%.
